According to patent publication US7326689B2, “Pseudomycins useful against plant diseases” (Eli Lilly and Company, priority 2000, dated 2008):

Experiments:
Test in all cases: Antifungal growth assay in potato dextrose broth, 24-well
Assay type in all cases: cell-based
Parameters in all cases: key: NI, no inhibition; p (partial), at least 50% inhibited
Fusarium avenaceum = test system: Fusarium avenaceum
In short: (§1)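 Compounds diluted in DMSO were tested at final 50, 25, 12.5, 6.25, 3.12 and 1.56 ug/ml (repeat assays 2–0.0625 ug/ml) in potato dextrose broth with 1% DMSO, inoculated with PDA mycelium plugs or ground mycelium (M. fijiensis). Growth was scored at two and five days (later for slow growers) against DMSO control; value is lowest concentration giving no growth.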

Verticillium dahliae = conditions: 2x assays
In short: as §1

Sclerotinia sclerotiorum = conditions: 2x assays
In short: as §1

Bipolaris sorokiniana = test system: Bipolaris sorokiniana
In short: as §1

[1] = test system: Drechslera tritici-repentis
In short: as §1

Phytophthora cactorum = test system: Phytophthora cactorum
In short: as §1

[2] = test system: Pestalotiopsis microspora NE-32
In short: as §1

Cochliobolus carbonum = test system: Cochliobolus carbonum
In short: as §1

Tapesia yallundae = conditions: 2x assays
In short: as §1

Fusarium culmorum = test system: Fusarium culmorum
In short: as §1

Phyllosticta maydis = test system: Phyllosticta maydis
In short: as §1

Botrytis alli = conditions: 2x assays
In short: as §1

Phytophthora parasitica = test system: Phytophthora parasitica
In short: as §1

pseudomycin A-PO4 was tested, and the “lowest level of compound that results in no growth” value (shortened to “lowest level … in no growth”) (Fusarium avenaceum; five day results) was “NI”, the “lowest level … in no growth” value (Fusarium avenaceum; two day results) was “NI” and the “lowest level … in no growth” value (Verticillium dahliae; five day results) was “p at 50”. The “lowest level … in no growth” value (Verticillium dahliae; two day results) was “p at 50”, the “lowest level … in no growth” value (Sclerotinia sclerotiorum; five day results) was “NI” and the “lowest level … in no growth” value (Sclerotinia sclerotiorum; two day results) was “NI”. The “lowest level … in no growth” value (Bipolaris sorokiniana; five day results) was “NI”, the “lowest level … in no growth” value (Bipolaris sorokiniana; two day results) was “NI” and the “lowest level … in no growth” value ([1]; five day results) was “p at 50”. For the same substance, the “lowest level … in no growth” value ([1]; two day results, 2x assays) was 50 µg/mL, the “lowest level … in no growth” value (Phytophthora cactorum; five day results) was “NI” and the “lowest level … in no growth” value (Phytophthora cactorum; two day results) was “NI”. The “lowest level … in no growth” value ([2]; five day results) was “NI”, the “lowest level … in no growth” value ([2]; two day results) was “p at 50” and the “lowest level … in no growth” value (Cochliobolus carbonum; five day results) was “NI”. The “lowest level … in no growth” value (Cochliobolus carbonum; two day results) was “NI”, the “lowest level … in no growth” value (Tapesia yallundae; five day results) was 50 µg/mL and the “lowest level … in no growth” value (Tapesia yallundae; two day results) was 25 µg/mL. For the same substance, the “lowest level … in no growth” value (Fusarium culmorum; five day results) was “NI”, the “lowest level … in no growth” value (Fusarium culmorum; two day results) was “NI” and the “lowest level … in no growth” value (Phyllosticta maydis; five day results) was “NI”. The “lowest level … in no growth” value (Phyllosticta maydis; two day results) was “p at 50”, the “lowest level … in no growth” value (Botrytis alli; five day results) was “p at 50” and the “lowest level … in no growth” value (Botrytis alli; two day results) was 50 µg/mL. For the same substance, the “lowest level … in no growth” value (Phytophthora parasitica; five day results) was “NI” and the “lowest level … in no growth” value (Phytophthora parasitica; two day results) was “NI”.
